From the supplement of paper PMC11208160 come the findings set out here.

This series in a line: recombinant UMI read abundance after kanamycin selection (control-corrected) (log10(CPM+1)); higher = more efficient recombination; extreme values may be limits of the assay; sequences stand for … in AGTGCAGAGAAAATCGGCCAGTTTTCTCTGCCTGCAGTCCGCATGCCGTGGGACCCCTTGGGTTCTAACCTGTTGCCTAGATTTATGCAGCGGACTGCCTTTCTCCCAAAGTGATAAACCGG…AGGTTGGTTTCACT; site = the 11-nt donor. The method, boiled down: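 In a pooled Escherichia coli screen for the IS621 bridge recombinase, donor and donor-binding-loop pairs were each placed with a 12-nt UMI on a plasmid bearing a promoterless kanamycin gene. This library was co-electroporated with a target plasmid encoding a fixed target and T7-inducible recombinase, and cells were plated either on IPTG (0.07 mM) plus kanamycin or without selection, in two replicates each. Recombinant UMIs were PCR-amplified across the donor–target junction and sequenced, and counts were converted to CPM, averaged over replicates, scaled by control-derived factors and reported as log10(CPM+1).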
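Also: IS621 bridge recombinase in Escherichia coli cells against a fixed T5 target plasmid.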

For the sequence “ATAGGTGCATGGACCGGTTTTCCCGGTAATCCGTATTTGTC (site ATAGGTGCTGA)”, the “recombinant UMI read abundance (log10)” value turned out to be 2.7. Take “ATAGTTCCATGGACCGGTTTTCCCGGTAATCCGTATTTGGA (site ATAGTTCCTTC)”: the “recombinant UMI read abundance (log10)” value worked out at 0.223.

With “ATATATACATGGACCGGTTTTCCCGGTAATCCGTATTTGAC (site ATATATACTGT)”, the “recombinant UMI read abundance (log10)” value was 2.65. With “ATATATACATGGACCGGTTTTCCCGGTAATCCGTATTTGAC (site ATCTATACTGT)” the figure was 0.727. As to “ATATATACATGGACCGGTTTTCCCGGTAATCCGTATTTGAC (site ATGTATACTGT)”, the “recombinant UMI read abundance (log10)” value was found to be 1.62. Next, “ATATATACATGGACCGGTTTTCCCGGTAATCCGTATTTGAC (site ATTTATACTGT)”: 0.227; “ATATCAACATGGACCGGTTTTCCCGGTAATCCGTATTTGTA (site ATATCAACTTA)”: 1.61; “ATATGAACATGGACCGGTTTTCCCGGTAATCCGTATTTGAC (site ATATGAACTGT)”: 2.9. Next, “ATATTTGCATGGACCGGTTTTCCCGGTAATCCGTATTTGAC (site ATATTTGCTGT)”: 2.1; “ATCACACCATGGACCGGTTTTCCCGGTAATCCGTATTTGTC (site ATCACACCTGA)”: 0. With “ATCACAGCATGGACCGGTTTTCCCGGTAATCCGTATTTGGG (site ATCACAGCTCC)” the figure was 0.00407. On to “ATCACCTCATGGACCGGTTTTCCCGGTAATCCGTATTTGCT (site ATCACCTCTAG)”, for which the “recombinant UMI read abundance (log10)” value stood at 2.75. Next, “ATCCAAACATGGACCGGTTTTCCCGGTAATCCGTATTTGAG (site ATCCAAACTCT)”: 1.6; “ATCCAAACATGGACCGGTTTTCCCGGTAATCCGTATTTGAG (site ATCCAACCTCT)”: 0.01. Next, “ATCCAAACATGGACCGGTTTTCCCGGTAATCCGTATTTGAG (site ATCCAAGCTCT)”: 0.432. In the case of “ATCCAAACATGGACCGGTTTTCCCGGTAATCCGTATTTGAG (site ATCCAATCTCT)”, the “recombinant UMI read abundance (log10)” value was determined as 0.352. Next, “ATCCAACCATGGACCGGTTTTCCCGGTAATCCGTATTTGAG (site ATCCAAACTCT)”: 0.0118; “ATCCAACCATGGACCGGTTTTCCCGGTAATCCGTATTTGAG (site ATCCAACCTCT)”: 0. With “ATCCAACCATGGACCGGTTTTCCCGGTAATCCGTATTTGAG (site ATCCAAGCTCT)” the figure was 0.133; with “ATCCAACCATGGACCGGTTTTCCCGGTAATCCGTATTTGAG (site ATCCAATCTCT)”, 0.257; with “ATCCAGGCATGGACCGGTTTTCCCGGTAATCCGTATTTGTG (site ATCCAGGCTCA)”, 0.328. Next, “ATCCCGGCATGGACCGGTTTTCCCGGTAATCCGTATTTGGG (site ATCCCGGCTCC)”: 0.00576; “ATCCCTACATGGACCGGTTTTCCCGGTAATCCGTATTTGCA (site ATCCCTACTTG)”: 1.81; “ATCCCTGCATGGACCGGTTTTCCCGGTAATCCGTATTTGTG (site ATCCCTGCTCA)”: 0.13. Take “ATCCCTTCATGGACCGGTTTTCCCGGTAATCCGTATTTGTG (site ATCCCTTCTCA)”: the “recombinant UMI read abundance (log10)” value amounted to 0.0697. For “ATCCGTCCATGGACCGGTTTTCCCGGTAATCCGTATTTGAC (site ATCCGTCCTGT)”, the “recombinant UMI read abundance (log10)” value is 0.00623. With “ATCCGTCCATGGACCGGTTTTCCCGGTAATCCGTATTTGAT (site AACCGTCCTAT)” the figure was 0.00762; with “ATCCGTCCATGGACCGGTTTTCCCGGTAATCCGTATTTGAT (site ACCCGTCCTAT)”, 0.0678; with “ATCCGTCCATGGACCGGTTTTCCCGGTAATCCGTATTTGAT (site AGCCGTCCTAT)”, 0.00385.

For the sequence “ATCCGTCCATGGACCGGTTTTCCCGGTAATCCGTATTTGAT (site ATCCGTCCTAT)”, the “recombinant UMI read abundance (log10)” value amounted to 0.0236. With “ATCCTGACATGGACCGGTTTTCCCGGTAATCCGTATTTGAA (site ATCCTGACTTT)” the figure was 0.419; with “ATCCTGGCATGGACCGGTTTTCCCGGTAATCCGTATTTGAA (site ATCCTGGCTTT)”, 1.24. With “ATCGAAGCATGGACCGGTTTTCCCGGTAATCCGTATTTGAG (site ATCAAAGCTCT)” the figure was 2.12.

Regarding “ATCGAAGCATGGACCGGTTTTCCCGGTAATCCGTATTTGAG (site ATCCAAGCTCT)”, the “recombinant UMI read abundance (log10)” value amounted to 0.355. Next, “ATCGAAGCATGGACCGGTTTTCCCGGTAATCCGTATTTGAG (site ATCGAAGCTCT)”: 2.1; “ATCGAAGCATGGACCGGTTTTCCCGGTAATCCGTATTTGAG (site ATCTAAGCTCT)”: 0.58.

For “ATCGACTCATGGACCGGTTTTCCCGGTAATCCGTATTTGAG (site ATCGACTCTCT)”, the “recombinant UMI read abundance (log10)” value was 1.67.

In the case of “ATCGAGTCATGGACCGGTTTTCCCGGTAATCCGTATTTGTA (site ATCGAGTCTTA)”, the “recombinant UMI read abundance (log10)” value stood at 3.05.

Take “ATCGATTCATGGACCGGTTTTCCCGGTAATCCGTATTTGAG (site ATCGATTCTCT)”: the “recombinant UMI read abundance (log10)” value amounted to 2.41. Turning to “ATCGGGACATGGACCGGTTTTCCCGGTAATCCGTATTTGTG (site ATCGGGACTCA)”, the “recombinant UMI read abundance (log10)” value is 0.972.

For the sequence “ATCTAAGCATGGACCGGTTTTCCCGGTAATCCGTATTTGAG (site ATCAAAGCTCT)”, the “recombinant UMI read abundance (log10)” value was found to be 0.792. Next, “ATCTAAGCATGGACCGGTTTTCCCGGTAATCCGTATTTGAG (site ATCCAAGCTCT)”: 1.93; “ATCTAAGCATGGACCGGTTTTCCCGGTAATCCGTATTTGAG (site ATCGAAGCTCT)”: 0.367.

Turning to “ATCTAAGCATGGACCGGTTTTCCCGGTAATCCGTATTTGAG (site ATCTAAGCTCT)”, the “recombinant UMI read abundance (log10)” value was determined as 2.16.

As for “ATCTATACATGGACCGGTTTTCCCGGTAATCCGTATTTGCC (site ATCTATACTGA)”, the “recombinant UMI read abundance (log10)” value came to 1.23. Next, “ATCTATACATGGACCGGTTTTCCCGGTAATCCGTATTTGCC (site ATCTATACTGC)”: 0; “ATCTATACATGGACCGGTTTTCCCGGTAATCCGTATTTGCC (site ATCTATACTGG)”: 2.12. With “ATCTATACATGGACCGGTTTTCCCGGTAATCCGTATTTGCC (site ATCTATACTGT)” the figure was 0.46; with “ATCTATACATGGACCGGTTTTCCCGGTAATCCGTATTTGTC (site ATCTATACTGA)”, 2.8. With “ATCTATACATGGACCGGTTTTCCCGGTAATCCGTATTTGTC (site ATCTATACTGC)” the figure was 0; with “ATCTATACATGGACCGGTTTTCCCGGTAATCCGTATTTGTC (site ATCTATACTGG)”, 0; with “ATCTATACATGGACCGGTTTTCCCGGTAATCCGTATTTGTC (site ATCTATACTGT)”, 0. Take “ATCTGATCATGGACCGGTTTTCCCGGTAATCCGTATTTGCT (site ATCTGATCTAG)”: the “recombinant UMI read abundance (log10)” value worked out at 2.71. Next, “ATCTTGGCATGGACCGGTTTTCCCGGTAATCCGTATTTGCT (site ATCTTGGCTAG)”: 0; “ATGAACTCATGGACCGGTTTTCCCGGTAATCCGTATTTGGG (site ATGAACTCTCC)”: 1.08. Turning to “ATGAAGACATGGACCGGTTTTCCCGGTAATCCGTATTTGCT (site AGGAAGACTTG)”, the “recombinant UMI read abundance (log10)” value worked out at 0. Take “ATGAAGACATGGACCGGTTTTCCCGGTAATCCGTATTTGCT (site ATGAAGACTAG)”: the “recombinant UMI read abundance (log10)” value was determined as 2.82. With “ATGAATACATGGACCGGTTTTCCCGGTAATCCGTATTTGCA (site AGGAAGACTTG)” the figure was 0. Next, “ATGAATACATGGACCGGTTTTCCCGGTAATCCGTATTTGCA (site ATGAATACTTG)”: 2.21. With “ATGAATACATGGACCGGTTTTCCCGGTAATCCGTATTTGGC (site ATGAATACTGC)”, the “recombinant UMI read abundance (log10)” value is 1.69. With “ATGAATTCATGGACCGGTTTTCCCGGTAATCCGTATTTGGT (site ATGAATTCTAC)” the figure was 2.57; with “ATGAGGACATGGACCGGTTTTCCCGGTAATCCGTATTTGGG (site ATGAGGACTCC)”, 0.399; with “ATGATAACATGGACCGGTTTTCCCGGTAATCCGTATTTGCA (site ATGATAACTTG)”, 2.08.

In the case of “ATGCAAGCATGGACCGGTTTTCCCGGTAATCCGTATTTGAG (site ATACAAGCTCT)”, the “recombinant UMI read abundance (log10)” value is 2.24. Next, “ATGCAAGCATGGACCGGTTTTCCCGGTAATCCGTATTTGAG (site ATCCAAGCTCT)”: 0.701; “ATGCAAGCATGGACCGGTTTTCCCGGTAATCCGTATTTGAG (site ATGCAAGCTCT)”: 2.26.

Take “ATGCAAGCATGGACCGGTTTTCCCGGTAATCCGTATTTGAG (site ATTCAAGCTCT)”: the “recombinant UMI read abundance (log10)” value was found to be 0.614. With “ATGCAAGCATGGACCGGTTTTCCCGGTAATCCGTATTTGGA (site ATGCAAGCTTC)” the figure was 1.86.
